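All cell lines were grown in 96-well plates and treated with compound for 48 hours. At the GI50, growth is halved.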 Calls of active or inactive are those of the source. Rule as the data show it: active = GI50 up to about 1.1 µM and inactive = higher.
Assays:
Experiment in all cases: NCI-60 cell line screen, 48 h
A549 = tested on: A549
BT-549 = tested on: BT-549
EKVX = tested on: EKVX
HCT-15 = tested on: HCT-15
HOP-92 = tested on: HOP-92
Hs-578T = tested on: Hs-578T
KM12 = tested on: KM12
LOX IMVI = tested on: LOX IMVI
MDA-MB-231 = tested on: MDA-MB-231
MDA-MB-435 = tested on: MDA-MB-435
NCI-H226 = tested on: NCI-H226
NCI-H460 = tested on: NCI-H460
NCI-H522 = tested on: NCI-H522
PC-3 = tested on: PC-3
RPMI-8226 = tested on: RPMI-8226
RXF 393 = tested on: RXF 393
SK-MEL-5 = tested on: SK-MEL-5
SNB-75 = tested on: SNB-75
UO-31 = tested on: UO-31
NCI/ADR-RES = tested on: NCI/ADR-RES

SMILES | GI50 (A549) | GI50 (BT-549) | GI50 (EKVX) | GI50 (HCT-15) | GI50 (HOP-92) | GI50 (Hs-578T) | GI50 (KM12) | GI50 (LOX IMVI) | GI50 (MDA-MB-231) | GI50 (MDA-MB-435) | GI50 (NCI-H226) | GI50 (NCI-H460) | GI50 (NCI-H522) | GI50 (PC-3) | GI50 (RPMI-8226) | GI50 (RXF 393) | GI50 (SK-MEL-5) | GI50 (SNB-75) | GI50 (UO-31) | GI50 (NCI/ADR-RES)
COc1ccc(NC2Oc3cc4c(cc3C(c3cc(OC)c(OC)c(OC)c3)C2C)OCO4)cc1 (configuration not stated) | 0.685 µM (active) | 1.04 µM (active) | 3.56 µM (inactive) | 0.485 µM | 0.92 µM (active) | 0.398 µM (active) | 0.381 µM (active) | 0.476 µM (active) | 0.881 µM (active) | 0.0991 µM (active) | 0.552 µM (active) | 0.429 µM (active) | 0.311 µM (active) | 0.586 µM (active) | 0.525 µM (active) | 0.437 µM (active) | 0.33 µM (active) | 0.301 µM (active) | 0.891 µM (active) | –
CC(=O)OC12c3ccccc3C(c3ccccc31)C1C(=O)N(Nc3ccccc3)C(=O)C12 (configuration not stated) | > 100 µM (inactive) | > 100 µM (inactive) | > 100 µM (inactive) | > 100 µM | – | 23.1 µM (inactive) | > 100 µM (inactive) | > 100 µM (inactive) | > 100 µM (inactive) | – | > 100 µM (inactive) | > 100 µM (inactive) | – | > 100 µM (inactive) | > 100 µM (inactive) | > 100 µM (inactive) | > 100 µM (inactive) | 92.7 µM (inactive) | > 100 µM (inactive) | > 100 µM (inactive)
CC(C)(C)OC(=O)C1C(=O)NC(=O)CC1C(COCc1ccccc1)OCc1ccccc1 (configuration not stated) | 30.4 µM (inactive) | 32.1 µM (inactive) | 25.3 µM (inactive) | 21.6 µM | 15.5 µM (inactive) | 23.1 µM (inactive) | 17.8 µM (inactive) | 19.2 µM (inactive) | 17.2 µM (inactive) | 19.1 µM (inactive) | 17.6 µM (inactive) | – | 15.8 µM (inactive) | 12.4 µM (inactive) | 20 µM (inactive) | – | 17.3 µM (inactive) | – | 27.1 µM (inactive) | –
CC1OC(OC2CC(O)(C(=O)CO)Cc3c(O)c4c(c(O)c32)C(=O)c2ccccc2C4=O)CC(N)C1O (configuration not stated) | < 0.01 µM (active) | 0.171 µM (active) | 0.158 µM (active) | 0.0708 µM | < 0.0338 µM (active) | 0.0206 µM (active) | 0.0168 µM (active) | < 0.01 µM (active) | 0.431 µM (active) | 0.156 µM (active) | < 0.01 µM (active) | < 0.01 µM (active) | < 0.0183 µM (active) | 0.0301 µM (active) | < 0.01 µM (active) | 0.0162 µM (active) | < 0.0105 µM (active) | < 0.0137 µM (active) | 0.0232 µM (active) | –
c1c[nH]c(-c2ccc(-c3ccc[nH]3)c3nsnc23)c1 | > 47.5 µM (inactive) | 27 µM (inactive) | 0.0426 µM (active) | 0.245 µM | 31.8 µM (inactive) | 35.9 µM (inactive) | 0.217 µM (active) | > 100 µM (inactive) | – | > 48.1 µM (inactive) | > 100 µM (inactive) | 17.3 µM (inactive) | 53.6 µM (inactive) | > 41.1 µM (inactive) | > 27.4 µM (inactive) | – | > 42.9 µM (inactive) | 2.65 µM (inactive) | > 48.1 µM (inactive) | > 51.6 µM (inactive)
C=C(CCC=C(C)C)C1CC=C(C)CC1 (configuration not stated) | 19.5 µM (inactive) | 95.7 µM (inactive) | 29.2 µM (inactive) | 18.2 µM | – | 20.9 µM (inactive) | 19 µM (inactive) | 5.48 µM (inactive) | 30.6 µM (inactive) | 18.2 µM (inactive) | > 100 µM (inactive) | 19.3 µM (inactive) | 16.4 µM (inactive) | – | – | 13.9 µM (inactive) | 16.6 µM (inactive) | – | 16.4 µM (inactive) | 35.6 µM (inactive)
CCc1c2c(nc3ccc(O)cc13)-c1cc3c(c(=O)n1C2)COC(=O)[C@]3(O)CC [7-ETHYL-10-HYDROXYCAMPTOTHECIN] | 0.0525 µM (active) | < 0.001 µM (active) | 0.178 µM (active) | 0.00711 µM | – | 0.0791 µM (active) | 0.0212 µM (active) | < 0.001 µM (active) | 0.00344 µM (active) | – | < 0.001 µM (active) | < 0.001 µM (active) | – | 0.00746 µM (active) | 0.236 µM (active) | – | – | – | – | –

From ChEMBL document CHEMBL1201862, “PubChem BioAssay data set” (2004)
